Reference: patent US7901675B2, “Method of using coenzyme Q10 to treat Huntington's disease” (U.S. Department of Veterans Affairs, priority 2004, dated 2011)

Assays:
[1] = tested on: R6/2 mice; experiment: Disease phenotype in R6/2 HD mice (weight loss, motor deficits, grip strength, brain atrophy, huntingtin inclusions); format: in vivo; conditions: oral CoQ10 in chow
Description: (§1) The present invention is based, in part, on the discovery that increased level of CoQ10 appears to slow the progressive functional decline in […]. We orally administered CoQ10 at 400 mg/kg, and 1, 5, 10, and 20 g/kg in R6/2 mice starting at weaning in chow formulations.

[2] = tested on: R6/2 mice; experiment: Survival of R6/2 HD mice on oral CoQ10 in chow; format: in vivo
Description: There is substantial evidence that bioenergetic defects may play a role in the pathogenesis of HD. A possible therapy for diseases in which there is defective energy metabolism is to administer the mitochondrial cofactor coenzyme Q10(CoQ10).
as §1

[3] = oral administration, 400 mg/kg, previously demonstrated

For `COC1=C(OC)C(=O)C(C/C=C(\C)CC/C=C(\C)CC/C=C(\C)CC/C=C(\C)CC/C=C(\C)CC/C=C(\C)CC/C=C(\C)CC/C=C(\C)CC/C=C(\C)CCC=C(C)C)=C(C)C1=O` [CoQ10, Coenzyme Q10], the “development of brain atrophy” value [1] was “significantly delayed”, the “development of grip strength deficit” value [1] was “significantly delayed” and the “development of huntingtin inclusions” value [1] was “significantly delayed”. For the same compound, the “development of motor deficits” value [1] was “significantly delayed”, the “development of weight loss” value [1] was “significantly delayed” and the neuroprotection [2, 3] was “neuroprotective”. For the same compound, the survival extension [2, 3] was 14.5%, the survival extension ([2]; oral in chow from weaning, 5 g/kg (greatest extension), vs untreated R6/2 mice) was 21.3% and the “survival in comparison to untreated R6/2 mice” value ([2]; oral in chow from weaning, all doses (400 mg/kg, 1, 5, 10, 20 g/kg)) was “significantly extended survival at all doses”.
